# Source: paper PMC9410882, “Identification of a novel deFADding activity in human, yeast and bacterial 5′ to 3′ exoribonucleases” (Nucleic Acids Research, 2022)
# What was measured:
# Xrn1 (Kl Xrn1) = biological target: T1, Xrn1 (Kl Xrn1) (Kluyveromyces lactis, UniProt Q6CJ09); test: inhibition of decay of […]-labelled capped RNA, gel; assay type: biochemical; conditions: FAD-capped or NAD-capped RNA as substrate
# T1 construct: gene KLLA0_F22385g; recombinant, Ni-NTA purified
# RNase AM (yciV) = biological target: T2, RNase AM (yciV) (Escherichia coli, UniProt P77766); test: thermal shift assay; assay type: binding; conditions: Mn2+-loaded enzyme; data not shown
# T2 construct: gene rnm; full-length, His-tagged, expressed in E. coli BL21 (DE3) Rosetta with 2,2'-bipyridyl and MnSO4; Ni-NTA and gel filtration
# T2 sequence (P77766 1-293): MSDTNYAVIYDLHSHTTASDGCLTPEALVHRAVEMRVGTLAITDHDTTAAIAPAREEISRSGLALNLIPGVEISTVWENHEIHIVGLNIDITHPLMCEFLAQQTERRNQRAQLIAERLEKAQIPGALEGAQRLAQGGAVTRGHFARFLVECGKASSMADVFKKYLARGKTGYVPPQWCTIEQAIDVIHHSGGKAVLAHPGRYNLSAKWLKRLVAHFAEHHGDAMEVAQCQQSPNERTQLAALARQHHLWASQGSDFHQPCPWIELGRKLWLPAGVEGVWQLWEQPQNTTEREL
# Kl Xrn1 = biological target: T3, Kl Xrn1 (Kluyveromyces lactis, UniProt Q6CJ09 1-1245); test: EMSA; stable complex, minimally competed by total yeast RNA; EMSA: 10 mM Tris-HCl pH 7.5, 150 mM KCl, 1.5 mM MgCl2, 0.5 mM DTT, on ice 30 min, 5 pmol RNA with 2.5-7.5 pmol Xrn1, 6% gel in 0.5x TBE; FcRAP: 1x lysis buffer, 4 C, 90 min; conditions: protein: recombinant; tags: C-terminal 6xHis; label: 32P uniform; single strand
# T3 sequence: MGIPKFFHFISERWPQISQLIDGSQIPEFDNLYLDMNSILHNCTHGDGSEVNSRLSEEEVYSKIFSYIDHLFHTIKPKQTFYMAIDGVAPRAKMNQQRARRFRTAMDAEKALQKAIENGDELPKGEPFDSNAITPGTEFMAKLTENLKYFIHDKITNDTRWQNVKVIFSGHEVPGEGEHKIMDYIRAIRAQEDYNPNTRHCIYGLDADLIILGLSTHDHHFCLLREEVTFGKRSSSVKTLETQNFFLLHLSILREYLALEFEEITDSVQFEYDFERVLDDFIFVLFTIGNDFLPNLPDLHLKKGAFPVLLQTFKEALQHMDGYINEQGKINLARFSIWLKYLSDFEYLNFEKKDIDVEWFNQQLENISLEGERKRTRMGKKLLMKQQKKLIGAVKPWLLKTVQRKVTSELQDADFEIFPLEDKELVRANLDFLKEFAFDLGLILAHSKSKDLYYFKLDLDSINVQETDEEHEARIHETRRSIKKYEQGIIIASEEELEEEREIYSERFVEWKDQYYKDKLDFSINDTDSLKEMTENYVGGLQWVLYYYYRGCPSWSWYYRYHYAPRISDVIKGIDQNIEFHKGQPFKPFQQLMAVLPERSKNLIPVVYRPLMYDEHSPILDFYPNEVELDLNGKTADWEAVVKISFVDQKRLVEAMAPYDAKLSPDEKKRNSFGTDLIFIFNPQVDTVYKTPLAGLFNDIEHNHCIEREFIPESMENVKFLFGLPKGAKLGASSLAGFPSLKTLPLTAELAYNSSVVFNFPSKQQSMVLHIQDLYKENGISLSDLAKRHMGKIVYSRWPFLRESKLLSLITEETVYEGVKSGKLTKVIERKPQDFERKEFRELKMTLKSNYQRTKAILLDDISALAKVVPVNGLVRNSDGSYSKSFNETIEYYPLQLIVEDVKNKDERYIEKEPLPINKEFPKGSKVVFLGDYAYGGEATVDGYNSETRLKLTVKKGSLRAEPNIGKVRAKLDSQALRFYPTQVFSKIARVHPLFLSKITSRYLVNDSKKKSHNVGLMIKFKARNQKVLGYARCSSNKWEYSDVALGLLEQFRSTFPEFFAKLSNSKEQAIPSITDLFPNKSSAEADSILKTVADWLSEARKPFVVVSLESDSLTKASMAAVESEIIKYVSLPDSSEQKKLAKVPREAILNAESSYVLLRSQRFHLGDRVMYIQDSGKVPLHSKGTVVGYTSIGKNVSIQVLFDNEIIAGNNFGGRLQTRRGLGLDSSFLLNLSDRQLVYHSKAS
molecule,measurement,setting,value
Cc1cc2nc3c(=O)[nH]c(=O)nc-3n(C[C@H](O)[C@H](O)[C@H](O)COP(=O)(O)OP(=O)(O)OC[C@H]3O[C@@H](n4cnc5c(N)ncnc54)[C@H](O)[C@@H]3OP(=O)(O)O)c2cc1C [FAD3′P],inhibition,Xrn1 (Kl Xrn1),"the effect was more pronounced with the FAD-capped RNA mimic, FAD3′P"
Cc1cc2nc3c(=O)[nH]c(=O)nc-3n(C[C@H](O)[C@H](O)[C@H](O)COP(=O)(O)OP(=O)(O)OC[C@H]3O[C@@H](n4cnc5c(N)ncnc54)[C@H](O)[C@@H]3O)c2cc1C [FAD],inhibition,Xrn1 (Kl Xrn1); free FAD,inhibition was nevertheless detected when using higher concentration of FAD
same,thermal shift,RNase AM (yciV),competent for binding FAD (as determined by thermal shift assay; data not shown)
"AGUUGGUGGUUGUUGUGUGUUUGUGGUUGGUUUGUUUGGC (ssRNA, 5' FAD cap) [FAD-capped RNA (FAD-40)]",binding result,Kl Xrn1,binds
"AGUUGGUGGUUGUUGUGUGUUUGUGGUUGGUUUGUUUGGC (ssRNA, 5' NAD cap) [NAD-capped RNA (NAD-40)]",binding result,Kl Xrn1,binds
